This passage reports EC50 results from US20240239863A1, “GIP RECEPTOR AGONIST AND USE THEREOF” (HANGZHOU ZHONGMEIHUADONG PHARMACEUTICAL CO., LTD., priority 2022, published 2024).

By EC50 is commonly meant the concentration at which the effect is half-maximal. High values mean a less potent agent, low ones a more potent agent.

In this assay the target is hGLP-1R (Homo sapiens, UniProt P43220). Nature of the assay: Cell agonistic activity at GLP-1 receptor (Example 7). The format is cell-based.

Molecules are shown by their SMILES. Non-standard residues stand in square brackets, D forms with d. Residues, ends and D or L forms follow the SMILES beside them. Aib = CC(C)(N)C(=O)O

Sequence of hGLP-1R (P43220 24-463): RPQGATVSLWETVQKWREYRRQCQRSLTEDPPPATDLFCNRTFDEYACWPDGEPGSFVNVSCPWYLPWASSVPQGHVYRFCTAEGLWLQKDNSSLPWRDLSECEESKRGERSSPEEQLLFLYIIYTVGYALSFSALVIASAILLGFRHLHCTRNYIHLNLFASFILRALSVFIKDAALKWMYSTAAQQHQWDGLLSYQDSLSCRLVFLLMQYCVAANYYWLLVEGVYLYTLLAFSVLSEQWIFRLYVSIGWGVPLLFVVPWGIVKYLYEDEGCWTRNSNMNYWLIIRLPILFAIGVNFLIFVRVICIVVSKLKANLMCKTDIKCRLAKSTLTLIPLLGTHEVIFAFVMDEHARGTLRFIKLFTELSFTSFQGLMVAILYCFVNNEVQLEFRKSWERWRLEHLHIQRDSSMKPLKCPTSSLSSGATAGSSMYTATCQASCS

Consider `CC[C@H](C)[C@H](NC(=O)[C@H](CO)NC(=O)[C@H](Cc1ccc(O)cc1)NC(=O)[C@H](CC(=O)O)NC(=O)[C@H](CO)NC(=O)[C@@H](NC(=O)[C@H](Cc1ccccc1)NC(=O)[C@@H](NC(=O)CNC(=O)[C@H](CCC(=O)O)NC(=O)C(C)(C)NC(=O)[C@@H](N)Cc1ccc(O)cc1)[C@@H](C)O)[C@@H](C)CC)C(=O)N[C@@H](C)C(=O)N[C@@H](CC(C)C)C(=O)N[C@@H](CC(=O)O)C(=O)N[C@@H](CCCNC(=N)N)C(=O)N[C@H](C(=O)N[C@@H](Cc1c[nH]cn1)C(=O)N[C@@H](CCC(N)=O)C(=O)N[C@@H](CCC(=O)O)C(=O)N[C@@H](CC(=O)O)C(=O)N[C@@H](Cc1ccccc1)C(=O)N[C@H](C(=O)N[C@@H](CCCCN)C(=O)N[C@@H](Cc1c[nH]c2ccccc12)C(=O)N[C@@H](CC(C)C)C(=O)N[C@@H](CC(C)C)C(=O)N[C@@H](C)C(=O)N[C@@H](CCC(N)=O)C(=O)N[C@@H](CCCNC(=N)N)C(=O)NCC(=O)O)C(C)C)[C@@H](C)CC` [Sequence 11] (H-Y[Aib]EGTFISDYSIALDRIHQEDFVKWLLAQRG-OH; N-terminus and C-terminus assumed), for which the EC50 is over 0.1 nM.

As to `CC[C@H](C)[C@H](NC(=O)[C@H](CO)NC(=O)[C@H](Cc1ccc(O)cc1)NC(=O)[C@H](CC(=O)O)NC(=O)[C@H](CO)NC(=O)[C@@H](NC(=O)[C@H](Cc1ccccc1)NC(=O)[C@@H](NC(=O)CNC(=O)[C@H](CCC(=O)O)NC(=O)C(C)(C)NC(=O)[C@@H](N)Cc1ccc(O)cc1)[C@@H](C)O)[C@@H](C)CC)C(=O)N[C@@H](C)C(=O)N[C@@H](CC(C)C)C(=O)N[C@@H](CC(=O)O)C(=O)N[C@@H](CCC(=O)O)C(=O)N[C@H](C(=O)N[C@@H](Cc1c[nH]cn1)C(=O)N[C@@H](CCC(N)=O)C(=O)N[C@@H](CCCCN)C(=O)N[C@@H](CC(=O)O)C(=O)N[C@@H](Cc1ccccc1)C(=O)N[C@H](C(=O)N[C@@H](CC(N)=O)C(=O)N[C@@H](Cc1c[nH]c2ccccc12)C(=O)N[C@@H](CC(C)C)C(=O)N[C@@H](CC(C)C)C(=O)N[C@@H](C)C(=O)N[C@@H](CCC(N)=O)C(=O)N[C@@H](CCCNC(=N)N)C(=O)NCC(=O)O)C(C)C)[C@@H](C)CC` [Sequence 5] (H-Y[Aib]EGTFISDYSIALDEIHQKDFVNWLLAQRG-OH; N-terminus and C-terminus assumed), the EC50 was over 0.1 nM.

In turn, `CC[C@H](C)[C@H](NC(=O)[C@H](CO)NC(=O)[C@H](Cc1ccc(O)cc1)NC(=O)[C@H](CC(=O)O)NC(=O)[C@H](CO)NC(=O)[C@@H](NC(=O)[C@H](Cc1ccccc1)NC(=O)[C@@H](NC(=O)CNC(=O)[C@H](CCC(=O)O)NC(=O)C(C)(C)NC(=O)[C@@H](N)Cc1ccc(O)cc1)[C@@H](C)O)[C@@H](C)CC)C(=O)N[C@@H](C)C(=O)N[C@@H](CC(C)C)C(=O)N[C@@H](CC(=O)O)C(=O)N[C@@H](CCCCN)C(=O)N[C@H](C(=O)N[C@@H](Cc1c[nH]cn1)C(=O)N[C@@H](CCC(N)=O)C(=O)N[C@@H](CCC(=O)O)C(=O)N[C@@H](CC(=O)O)C(=O)N[C@@H](Cc1ccccc1)C(=O)N[C@H](C(=O)N[C@@H](CC(N)=O)C(=O)N[C@@H](Cc1c[nH]c2ccccc12)C(=O)N[C@@H](CC(C)C)C(=O)N[C@@H](CC(C)C)C(=O)N[C@@H](C)C(=O)N[C@@H](CCC(N)=O)C(=O)N[C@@H](CCCNC(=N)N)C(=O)NCC(=O)O)C(C)C)[C@@H](C)CC` [Sequence 9] (H-Y[Aib]EGTFISDYSIALDKIHQEDFVNWLLAQRG-OH; N-terminus and C-terminus assumed) returned an EC50 of over 0.1 nM.

In turn, `CC[C@H](C)[C@H](NC(=O)[C@H](CO)NC(=O)[C@H](Cc1ccc(O)cc1)NC(=O)[C@H](CC(=O)O)NC(=O)[C@H](CO)NC(=O)[C@@H](NC(=O)[C@H](Cc1ccccc1)NC(=O)[C@@H](NC(=O)CNC(=O)[C@H](CCC(=O)O)NC(=O)C(C)(C)NC(=O)[C@@H](N)Cc1ccc(O)cc1)[C@@H](C)O)[C@@H](C)CC)C(=O)N[C@@H](C)C(=O)N[C@@H](CC(C)C)C(=O)N[C@@H](CC(=O)O)C(=O)N[C@@H](CCCNC(=N)N)C(=O)N[C@@H](CC(C)C)C(=O)N[C@@H](Cc1c[nH]cn1)C(=O)N[C@@H](CCC(N)=O)C(=O)N[C@@H](CCC(=O)O)C(=O)N[C@@H](CC(=O)O)C(=O)N[C@@H](Cc1ccccc1)C(=O)N[C@H](C(=O)N[C@@H](CCCCN)C(=O)N[C@@H](Cc1c[nH]c2ccccc12)C(=O)N[C@@H](CC(C)C)C(=O)N[C@@H](CC(C)C)C(=O)N[C@@H](C)C(=O)N[C@@H](CCC(N)=O)C(=O)N[C@@H](CCCNC(=N)N)C(=O)NCC(=O)O)C(C)C` [Sequence 15] (H-Y[Aib]EGTFISDYSIALDRLHQEDFVKWLLAQRG-OH; N-terminus and C-terminus assumed) showed an EC50 of over 0.1 nM.

`CC[C@H](C)[C@H](NC(=O)[C@H](CO)NC(=O)[C@H](Cc1ccc(O)cc1)NC(=O)[C@H](CC(=O)O)NC(=O)[C@H](CO)NC(=O)[C@@H](NC(=O)[C@H](Cc1ccccc1)NC(=O)[C@@H](NC(=O)CNC(=O)[C@H](CCC(=O)O)NC(=O)C(C)(C)NC(=O)[C@@H](N)Cc1ccc(O)cc1)[C@@H](C)O)[C@@H](C)CC)C(=O)N[C@@H](C)C(=O)N[C@@H](CC(C)C)C(=O)N[C@@H](CC(=O)O)C(=O)N[C@@H](CCCNC(=N)N)C(=O)N[C@@H](CC(C)C)C(=O)N[C@@H](Cc1c[nH]cn1)C(=O)N[C@@H](CCC(N)=O)C(=O)N[C@@H](CCC(=O)O)C(=O)N[C@@H](CC(=O)O)C(=O)N[C@@H](Cc1ccccc1)C(=O)N[C@H](C(=O)N[C@@H](CC(N)=O)C(=O)N[C@@H](Cc1c[nH]c2ccccc12)C(=O)N[C@@H](CC(C)C)C(=O)N[C@@H](CC(C)C)C(=O)N[C@@H](C)C(=O)N[C@@H](CCC(N)=O)C(=O)N[C@@H](CCCCN)C(=O)NCC(=O)O)C(C)C` [Sequence 16] (H-Y[Aib]EGTFISDYSIALDRLHQEDFVNWLLAQKG-OH; N-terminus and C-terminus assumed) had an EC50 of over 0.1 nM.

The compound `CC[C@H](C)[C@H](NC(=O)[C@H](CO)NC(=O)[C@H](Cc1ccc(O)cc1)NC(=O)[C@H](CC(=O)O)NC(=O)[C@H](CO)NC(=O)[C@@H](NC(=O)[C@H](Cc1ccccc1)NC(=O)[C@@H](NC(=O)CNC(=O)[C@H](CCC(=O)O)NC(=O)C(C)(C)NC(=O)[C@@H](N)Cc1ccc(O)cc1)[C@@H](C)O)[C@@H](C)CC)C(=O)N[C@@H](C)C(=O)N[C@@H](CC(C)C)C(=O)N[C@@H](CC(=O)O)C(=O)N[C@@H](CCCNC(=N)N)C(=O)N[C@H](C(=O)N[C@@H](Cc1c[nH]cn1)C(=O)N[C@@H](CCC(N)=O)C(=O)N[C@@H](CCC(N)=O)C(=O)N[C@@H](CC(=O)O)C(=O)N[C@@H](Cc1ccccc1)C(=O)N[C@H](C(=O)N[C@@H](CCCCN)C(=O)N[C@@H](Cc1c[nH]c2ccccc12)C(=O)N[C@@H](CC(C)C)C(=O)N[C@@H](CC(C)C)C(=O)N[C@@H](C)C(=O)N[C@@H](CCC(N)=O)C(=O)N[C@@H](CCCNC(=N)N)C(=O)NCC(=O)O)C(C)C)[C@@H](C)CC` [Sequence 13] (H-Y[Aib]EGTFISDYSIALDRIHQQDFVKWLLAQRG-OH; N-terminus and C-terminus assumed) returned a half-maximal effective concentration (EC50) of over 0.1 nM.

Take `CC[C@H](C)[C@H](NC(=O)[C@H](CO)NC(=O)[C@H](Cc1ccc(O)cc1)NC(=O)[C@H](CC(=O)O)NC(=O)[C@H](CO)NC(=O)[C@@H](NC(=O)[C@H](Cc1ccccc1)NC(=O)[C@@H](NC(=O)CNC(=O)[C@H](CCC(=O)O)NC(=O)C(C)(C)NC(=O)[C@@H](N)Cc1ccc(O)cc1)[C@@H](C)O)[C@@H](C)CC)C(=O)N[C@@H](C)C(=O)N[C@@H](CC(C)C)C(=O)N[C@@H](CC(=O)O)C(=O)N[C@@H](CCCCN)C(=O)N[C@@H](CC(C)C)C(=O)N[C@@H](Cc1c[nH]cn1)C(=O)N[C@@H](CCC(N)=O)C(=O)N[C@@H](CCC(=O)O)C(=O)N[C@@H](CC(=O)O)C(=O)N[C@@H](Cc1ccccc1)C(=O)N[C@H](C(=O)N[C@@H](CC(N)=O)C(=O)N[C@@H](Cc1c[nH]c2ccccc12)C(=O)N[C@@H](CC(C)C)C(=O)N[C@@H](CC(C)C)C(=O)N[C@@H](C)C(=O)N[C@@H](CCC(N)=O)C(=O)N[C@@H](CCCNC(=N)N)C(=O)NCC(=O)O)C(C)C` [Sequence 10] (H-Y[Aib]EGTFISDYSIALDKLHQEDFVNWLLAQRG-OH; N-terminus and C-terminus assumed): the EC50 was over 0.1 nM.

On to `CC[C@H](C)[C@H](NC(=O)[C@H](CO)NC(=O)[C@H](Cc1ccc(O)cc1)NC(=O)[C@H](CC(=O)O)NC(=O)[C@H](CO)NC(=O)[C@@H](NC(=O)[C@H](Cc1ccccc1)NC(=O)[C@@H](NC(=O)CNC(=O)[C@H](CCC(=O)O)NC(=O)C(C)(C)NC(=O)[C@@H](N)Cc1ccc(O)cc1)[C@@H](C)O)[C@@H](C)CC)C(=O)N[C@@H](C)C(=O)N[C@@H](CC(C)C)C(=O)N[C@@H](CC(=O)O)C(=O)N[C@@H](CCC(=O)O)C(=O)N[C@H](C(=O)N[C@@H](Cc1c[nH]cn1)C(=O)N[C@@H](CCC(N)=O)C(=O)N[C@@H](CCCCN)C(=O)N[C@@H](CC(=O)O)C(=O)N[C@@H](Cc1ccccc1)C(=O)N[C@H](C(=O)N[C@@H](CCCCN)C(=O)N[C@@H](Cc1c[nH]c2ccccc12)C(=O)N[C@@H](CC(C)C)C(=O)N[C@@H](CC(C)C)C(=O)N[C@@H](C)C(=O)N[C@@H](CCC(N)=O)C(=O)N[C@@H](CCCCN)C(=O)NCC(=O)O)C(C)C)[C@@H](C)CC` [Sequence 4] (H-Y[Aib]EGTFISDYSIALDEIHQKDFVKWLLAQKG-OH; N-terminus and C-terminus assumed), for which the EC50 is over 0.1 nM.

On to `CC[C@H](C)[C@H](NC(=O)[C@H](CO)NC(=O)[C@H](Cc1ccc(O)cc1)NC(=O)[C@H](CC(=O)O)NC(=O)[C@H](CO)NC(=O)[C@@H](NC(=O)[C@H](Cc1ccccc1)NC(=O)[C@@H](NC(=O)CNC(=O)[C@H](CCC(=O)O)NC(=O)C(C)(C)NC(=O)[C@@H](N)Cc1ccc(O)cc1)[C@@H](C)O)[C@@H](C)CC)C(=O)N[C@@H](C)C(=O)N[C@@H](CC(C)C)C(=O)N[C@@H](CC(=O)O)C(=O)N[C@@H](CCCCN)C(=O)N[C@H](C(=O)N[C@@H](Cc1c[nH]cn1)C(=O)N[C@@H](CCC(N)=O)C(=O)N[C@@H](CCC(=O)O)C(=O)N[C@@H](CC(=O)O)C(=O)N[C@@H](Cc1ccccc1)C(=O)N[C@H](C(=O)N[C@@H](CCCCN)C(=O)N[C@@H](Cc1c[nH]c2ccccc12)C(=O)N[C@@H](CC(C)C)C(=O)N[C@@H](CC(C)C)C(=O)N[C@@H](C)C(=O)N[C@@H](CCC(N)=O)C(=O)N[C@@H](CCCCN)C(=O)NCC(=O)O)C(C)C)[C@@H](C)CC` [Sequence 3] (H-Y[Aib]EGTFISDYSIALDKIHQEDFVKWLLAQKG-OH; N-terminus and C-terminus assumed), for which the concentration for a half-maximal effect (EC50) is over 0.1 nM.
